Data on 5 compounds can be found in patent US7647217B2, “Structure of the farnesoid X receptor ligand binding domain and methods of use therefor” (The Salk Institute for Biological Studies, priority 2002, dated 2010).

Test [1] addresses T1, FXR ligand-binding domain (Homo sapiens, UniProt Q96RI1).
T1 construct: made in house; host or cells: E. coli BL21 (DE3)
T1 sequence (Q96RI1 258-486): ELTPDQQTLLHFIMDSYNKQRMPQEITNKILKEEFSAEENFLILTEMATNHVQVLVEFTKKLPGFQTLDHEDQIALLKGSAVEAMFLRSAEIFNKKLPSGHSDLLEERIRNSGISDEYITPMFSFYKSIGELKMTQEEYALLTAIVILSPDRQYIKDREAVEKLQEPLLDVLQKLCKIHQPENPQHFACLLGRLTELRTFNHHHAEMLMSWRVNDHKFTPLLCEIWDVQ
Description: FRET-based coactivator (SRC-1 peptide) binding assay. It is filed as biochemical. Conditions: for pEC50: agonist mode, 8 nM GST-FXR LBD, 16 nM SRC-1 peptide, read-out: EC50 of SRC-1 peptide recruitment. As to the method: Increasing amounts of the compounds were added as indicated. Binding reactions contained 8 nM Europium labeled GST-FXR ligand-binding domain fusion protein and 16 nM allophycocyanin-labeled SRC-1 receptor binding peptide. Results are expressed at 1000*(665 nm/615 nm).
Standard PCR amplifications of the LBD of human FXR (residues 248 to 476) and sub-cloning techniques were used to generate pGEX Glutathione-s-transferase (GST) and pHIS8-3 (Jez et al. (2000) Dissection of malonyl-coenzyme A decarboxylation from polyketide formation in the reaction mechanism of a plant polyketide synthase. Biochemistry 39, 890-902) prokaryote protein expression vectors. DNA fragments containing hFXR aa248 to 476 were cloned into the BamHI site of pGEX-hFXR, while the cloning sites NcoI and BamHI sites were used in pHIS8-3.
To determine if the compounds identified as ligands could promote the association of FXR with co-activators in vitro, a fluorescence resonance energy transfer (FRET)-based coactivator binding assay was employed (see, for example, Makishima et al. (1999), supra; Urizar et al. (2002). A natural product that lowers cholesterol as an antagonist ligand for FXR. Science. 296(5573), 1703-6). This assay relies on an agonist-induced interaction between the nuclear receptor and its coactivator bringing two fluorogenic partners together resulting in the nuclear receptor ligand-dependent FRET.

For the next test, the target named is T2, hRARβ (Homo sapiens, UniProt P10826).
T2 construct: expressed in transfected cells; host or cells: CV-1 (monkey)
T2 sequence (P10826 183-417 limits assumed): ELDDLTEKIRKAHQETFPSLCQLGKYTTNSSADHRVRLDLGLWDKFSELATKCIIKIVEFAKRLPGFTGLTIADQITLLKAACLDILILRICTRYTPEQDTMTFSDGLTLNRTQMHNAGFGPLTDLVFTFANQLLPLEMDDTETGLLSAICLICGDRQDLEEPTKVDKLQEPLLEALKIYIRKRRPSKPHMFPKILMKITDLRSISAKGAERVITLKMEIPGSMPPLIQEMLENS
As to the kind of experiment: GAL4 chimeric NHR cross-reactivity assay. It is filed as cell-based. The settings on record: 10 μM. As to the method: (§1) FIGS. 3A-3E collectively show the results of ligand activation of CV-1 cells co-transfected with a luciferase reporter gene with a variety of receptor expression constructs. […] FIGS. 3C-3E show the results of CV-1 cells transiently transfected with the indicated reporter constructs, treated with either DMSO or 10 μM of the compounds fexaramine (3C), fexarine (3D), fexarene (3E). Reporter activity was normalized to the internal control and the data plotted as fold activation relative to untreated cells. All transfections contained CMX-βgal as an internal control.
(§2) The expression plasmids pCMX, pCMX-LacZ, pCMX-mFXRFL, pCMX-hRXRFL, pCMX-GALDBD-rFXRLBD and other pCUX-GALDBD-NR LBDs (hRXRα, hPPARαγδ, mPXR, hPXR, hLXRα, HTRβ, hRARβ, mCAR, mERR3 and hVDR) have been described elsewhere (Blumberg et al. (1998). SXR, a novel steroid and xenobiotic-sensing nuclear receptor. Genes Dev. 12(20), 3195-205). The reporter plasmids pMH2004-TK-luc, pTKECRE*6-luc, pTKER-8*2-luc and pMRP-2-luc also have been described elsewhere. The hPLTP-luc promoter was kindly provided by Dr Dennis Dowhan and the hIBABP-luc promoter was created from a plasmid provided by Dr Philippe Besnard.
(§3) Cell-based transcriptional activation assays using chimeric nuclear hormone receptor (NHR) constructs were established to measure the selectivity of the compounds to FXR relative to other NHRs (Forman et al. (1995). Identification of a nuclear receptor that is activated by farnesol metabolites. Cell 81, 687-693). These assays used fusion proteins with the yeast GAL4 DNA binding domain connected to the ligand-binding domain (LBD) of NHRs. These constructs were co-transfected with a thymidine kinase C minimal promoter reporter vector containing four copies of the GAL4 binding site. Titration experiments were then performed using the identified compounds. […] Addition of RXR had no effect on the activation potential of fexaramine, fexarine, fexarene in this assay.
(§4) No activity was observed on other chimeric NHR constructs including hRXRα, hPPARαγδ, mPXR, hPXR, hLXRα, hTRβ, hRARβ, mCAR, mERR3 and hVDR (see FIGS. 3C-3E).

The target of a further test is T3, hRXRα (Homo sapiens, UniProt P19793).
T3 construct: expressed in transfected cells; host or cells: CV-1 (monkey)
T3 sequence (P19793 227-458 limits assumed): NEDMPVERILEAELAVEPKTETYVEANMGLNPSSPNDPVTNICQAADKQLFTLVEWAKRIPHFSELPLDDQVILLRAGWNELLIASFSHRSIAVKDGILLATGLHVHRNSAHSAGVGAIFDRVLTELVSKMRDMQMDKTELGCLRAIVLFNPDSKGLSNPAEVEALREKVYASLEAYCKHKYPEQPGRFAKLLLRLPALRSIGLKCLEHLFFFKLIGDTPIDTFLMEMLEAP
As to the kind of experiment: GAL4 chimeric NHR cross-reactivity assay. The format is cell-based. Conditions: 10 μM. As to the method:
as §1, §2, §3, §4

Another test addresses T4, hVDR (Homo sapiens, UniProt P11473).
T4 construct: expressed in transfected cells; host or cells: CV-1 (monkey)
T4 sequence (P11473 127-423 limits assumed): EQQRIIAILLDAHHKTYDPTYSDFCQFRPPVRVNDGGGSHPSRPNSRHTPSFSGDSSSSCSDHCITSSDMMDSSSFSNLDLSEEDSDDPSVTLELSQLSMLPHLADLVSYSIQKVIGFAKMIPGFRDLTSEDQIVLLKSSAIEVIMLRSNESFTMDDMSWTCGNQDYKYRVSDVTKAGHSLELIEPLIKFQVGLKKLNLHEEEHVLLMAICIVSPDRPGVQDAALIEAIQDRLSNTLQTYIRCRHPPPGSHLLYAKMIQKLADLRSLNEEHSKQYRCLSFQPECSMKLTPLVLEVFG
Description: GAL4 chimeric NHR cross-reactivity assay. The settings on record: 10 μM. It is filed as cell-based. As to the method:
as §1, §2, §3, §4

A further test addresses T5, mCAR (Mus musculus, UniProt O35627).
T5 construct: expressed in transfected cells; host or cells: CV-1 (monkey)
T5 sequence (O35627 119-358 limits assumed): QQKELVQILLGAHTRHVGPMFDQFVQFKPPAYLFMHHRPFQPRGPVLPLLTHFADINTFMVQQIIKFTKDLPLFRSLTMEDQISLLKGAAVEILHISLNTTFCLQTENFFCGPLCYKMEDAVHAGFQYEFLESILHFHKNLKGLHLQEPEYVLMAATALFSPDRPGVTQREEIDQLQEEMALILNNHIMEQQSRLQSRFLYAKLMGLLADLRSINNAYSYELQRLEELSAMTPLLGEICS
As to the kind of experiment: GAL4 chimeric NHR cross-reactivity assay. It is filed as cell-based. Conditions: 10 μM. As to the method: as §1, §2, §3, §4

As usually defined, the pEC50 is −log10 of the EC50, conventionally taken in molar units.

pEC50: −log10 of the molar value.

Take `COC(=O)/C=C/c1cccc(N(Cc2ccc(-c3ccc(C(C)(C)C)cc3)cc2)C(=O)C(C)C)c1` [SRI-2]: the “recruitment of SRC-1 peptide” value in test [1] is given as “Weaker recruitment”.

With `COC(=O)/C=C/c1cccc(N(Cc2ccc(-c3ccc(N(C)C)cc3)cc2)C(=O)C2CCCCC2)c1` [fexaramine], the pEC50 in test [1] was 6.59. For the same compound, the “activity on chimeric hRARβ construct” value at hRARβ was “No activity”. For the same compound, the “activity on chimeric hRXRα construct” value on hRXRα is reported as “No activity”. Besides, the “activity on chimeric hVDR construct” value on hVDR is “No activity”. For the same compound, the “activity on chimeric mCAR construct” value at mCAR is “No activity”.

In the case of `COC(=O)/C=C/c1cccc(N(Cc2ccc(-c3ccc4c(c3)OCO4)cc2)C(=O)C2CCCCC2)c1` [fexarine], in test [1], the pEC50 was 6.65. For the same compound, the “activity on chimeric hRARβ construct” value on hRARβ was “No activity”. Further, the “activity on chimeric hRXRα construct” value on hRXRα is on record as “No activity”. Further, at hVDR, the “activity on chimeric hVDR construct” value is reported as “No activity”. Further, the “activity on chimeric mCAR construct” value at mCAR is recorded as “No activity”.

With `COC(=O)/C=C/c1cccc(N(Cc2ccc(-c3ccccc3OC)cc2)C(=O)C(C)C)c1` [SRI-1], in test [1], the “recruitment of SRC-1 peptide” value is given as “Weaker recruitment”.

Turning to `COC(=O)/C=C/c1cccc(N(Cc2ccc(/C=C/c3ccccc3)cc2)C(=O)C2CCCCC2)c1` [fexarene], in test [1], the pEC50 is roughly 6.59. The “activity on chimeric hRARβ construct” value on hRARβ was “No activity”. At hRXRα, the “activity on chimeric hRXRα construct” value is reported as “No activity”. Besides, the “activity on chimeric hVDR construct” value at hVDR is given as “No activity”. The “activity on chimeric mCAR construct” value on mCAR is “No activity”.
